# Laboratory results taken from patent US5502068A, “Cyclopropylpyrroloindole-oligopeptide anticancer agents” (Synphar Laboratories, Inc., priority 1995, dated 1996).
# “Also recorded” adds a separate entry of the source. Where two headings read alike, the source gives them in different places.
# Legend:
# [1] = test system: KB human nasopharyngeal carcinoma cells; assay: Cytotoxicity (antiproliferative effect), crystal violet staining; type: cell-based; details: for IC50: Homo sapiens, KB, 72 h, KB cells, 3 days, read-out: KB cells, toxicity TD50
# Procedure: KB human nasopharyngeal carcinoma cells, were maintained in RPMI 1640 medium supplemented with 10% fetal bovine serum. KB cells were cultured in plastic tissue culture flasks and kept in an incubator at 37° C. in humidified air containing 5% CO2. These cells were free of Mycoplasma as determined with Hoechst 33258 stain.
# The antiproliferative effect of compounds was determined using cell staining method by crystal violet.
# One hundred-μ1 cultures were established at 10^3 cells/well in 96-well tissue culture plates (Nunc, Roskilde, Denmark). After 24 h. 100 µl of the medium containing 2 times concentrated the compounds were added to the cell culture. After an additional 3 days culture, cells were fixed to 20 µl of 25% glutaraldehyde for 15 minutes and washed with water, dried and stained with 0.05% crystal violet in 20% methanol for 15 minutes. After washing with water and drying, crystal violet was extracted with 100 µl of 50 mM NaH2 PO4 /ethanol (1:1 v/v) and OD540 was measured by the multiscanphotometer (Corona, Tokyo, Japan). A linear relationship between cell number and the amount of dye binding was found over the range of cell densities observed all experiments.
# DNA = assay: Site and sequence selective DNA alkylation by polyacrylamide gel electrophoresis (PAGE); type: biochemical; details: for Alkylation Intensity at AATA*: site AATA*; for Alkylation Intensity at ATAA*: site ATAA*; for Alkylation Intensity at CTTA: site CTTA; for Alkylation Intensity at GAAA: site GAAA; for Alkylation Intensity at GATA*: site GATA*; for Alkylation Intensity at GTTA: site GTTA; for Alkylation Intensity at TATA: site TATA; for Alkylation Intensity at TTAA*: site TTAA*; for Alkylation Intensity at TTTA: site TTTA
# Description: In contrast to FCE 24517, clear evidence of site and sequence selective DNA alkylation was obtained for the new CPI-oligopeptides by polyacrylamide gel electrophoresis (PAGE). […] Table 5 quantifies and compares the alkylation intensities at different sites for the CPI-oligopeptides with CC-1065. […] A detailed analysis of the frequency of occurrence of bases flanking the prominent alkylation sites for YW-052 and YW-053 compared with CC-1065 is given in Table 7.
# herpes viruses = details: cited from earlier work
# [2] = in words; cited from earlier work
structure (smiles),measurement,setting,value
"COc1cccc2c1C(=O)c1c(O)c3c(c(O)c1C2=O)C[C@@](O)(C(=O)CO)C[C@@H]3O[C@H]1C[C@H](N)[C@H](O)[C@H](C)O1 [Adriamycin, reference compound]",IC50,[1]; Table 1,11 ng/mL
same,IC50,[1]; Table 2,5 ng/mL
same,IC50,[1]; Table 3,4.4 ng/mL
Cc1c[nH]c2c1C13CC1CN(C(=O)CCc1cccn1C)C3=CC2=O (stereo not shown) [YW-033],IC50,[1]; Table 1,263 ng/mL
same,Alkylation Intensity at AATA*,DNA,1.42
same,Alkylation Intensity at ATAA*,DNA; first column of Table 5,.95
same,Alkylation Intensity at ATAA*,DNA; third column of Table 5,1.11
same,Alkylation Intensity at CTTA,DNA,.68
same,Alkylation Intensity at GAAA,DNA,.84
same,Alkylation Intensity at GATA*,DNA,1.41
same,Alkylation Intensity at GTTA,DNA,1.27
same,Alkylation Intensity at TATA,DNA,1.40
same,Alkylation Intensity at TTAA*,DNA,.84
same,Alkylation Intensity at TTTA,DNA,.97
Cc1c[nH]c2c1C13CC1CN(C(=O)c1cccn1C)C3=CC2=O (stereo not shown) [YW-032],IC50,[1]; Table 1,38 ng/mL
same,Alkylation Intensity at AATA*,DNA,1.35
same,Alkylation Intensity at ATAA*,DNA; first column of Table 5,.88
same,Alkylation Intensity at ATAA*,DNA; third column of Table 5,1.01
same,Alkylation Intensity at CTTA,DNA,.61
same,Alkylation Intensity at GAAA,DNA,.79
same,Alkylation Intensity at GATA*,DNA,1.35
same,Alkylation Intensity at GTTA,DNA,1.03
same,Alkylation Intensity at TATA,DNA,1.05
same,Alkylation Intensity at TTAA*,DNA,.71
same,Alkylation Intensity at TTTA,DNA,.63
Cc1c[nH]c2c1C13CC1CN(C(=O)c1cc(NC(=O)c4cc(NC(=O)CCN(C)C)cn4C)cn1C)C3=CC2=O (stereo not shown) [YW-61],IC50,[1]; Table 3,2490 ng/mL
CCCC(=O)Nc1cc(C(=O)Nc2cc(C=CC(=O)N3CC4CC45C3=CC(=O)c3[nH]cc(C)c35)n(C)c2)n(C)c1 (stereo not shown) [YW-053],"Frequency of Occurrence, base A at +1","DNA; A, position +1",27%
same,"Frequency of Occurrence, base A at +2","DNA; A, position +2",27%
same,"Frequency of Occurrence, base A at +3","DNA; A, position +3",27%
same,"Frequency of Occurrence, base A at -1","DNA; A, position -1",36%
same,"Frequency of Occurrence, base A at -2","DNA; A, position -2",45%
same,"Frequency of Occurrence, base A at -3","DNA; A, position -3",36%
same,"Frequency of Occurrence, A/T at +1","DNA; A/T, position +1",82%
same,"Frequency of Occurrence, A/T at +2","DNA; A/T, position +2",54%
same,"Frequency of Occurrence, A/T at +3","DNA; A/T, position +3",54%
same,"Frequency of Occurrence, A/T at -1","DNA; A/T, position -1",100%
same,"Frequency of Occurrence, A/T at -2","DNA; A/T, position -2",100%
same,"Frequency of Occurrence, A/T at -3","DNA; A/T, position -3",63%
same,"Frequency of Occurrence, base C at +2","DNA; C, position +2",9%
same,"Frequency of Occurrence, base C at +3","DNA; C, position +3",9%
same,"Frequency of Occurrence, base C at -3","DNA; C, position -3",10%
same,"Frequency of Occurrence, base G at +1","DNA; G, position +1",28%
same,"Frequency of Occurrence, base G at +2","DNA; G, position +2",37%
same,"Frequency of Occurrence, base G at +3","DNA; G, position +3",37%
same,"Frequency of Occurrence, base G at -3","DNA; G, position -3",27%
same,"Frequency of Occurrence, base T at +1","DNA; T, position +1",45%
same,"Frequency of Occurrence, base T at +2","DNA; T, position +2",27%
same,"Frequency of Occurrence, base T at +3","DNA; T, position +3",27%
same,"Frequency of Occurrence, base T at -1","DNA; T, position -1",64%
same,"Frequency of Occurrence, base T at -2","DNA; T, position -2",55%
same,"Frequency of Occurrence, base T at -3","DNA; T, position -3",27%
same,"Frequency of Occurrence, A* (site of alkylation)",DNA; alkylated base A*,91%
same,"Frequency of Occurrence, G* (site of alkylation)",DNA; alkylated base G*,9%
same,"Alkylation Sites (5'-3'), Moderate","DNA; moderate sites, listed as YW-53","TTAA, AATG, GATA; also recorded: ATAA, CTTA, GAAA"
same,"Alkylation Sites (5'-3'), Strong","DNA; strong sites, listed as YW-53","TTTA, TATA, GTTA; also recorded: AATA, ATAA"
Cn1cc(NC(=O)c2cc(NC(=O)c3cc(NC=O)cn3C)cn2C)cc1C(=O)NCCC(=N)N [distamycin],therapeutic index,herpes viruses,about 3
same,cytotoxicity,[2],high cytotoxicity
Cc1c[nH]c2c1C13CC1CN(C(=O)c1nc(NC(=O)c4nc(NC(=O)CCN(C)C)cn4C)cn1C)C3=CC2=O (stereo not shown) [YW-64],IC50,[1]; Table 3,2520 ng/mL
Cc1c[nH]c2c1C13CC1CN(C(=O)c1nc(NC(=O)CCN(C)C)cn1C)C3=CC2=O (stereo not shown) [YW-63],IC50,[1]; Table 3,385 ng/mL
CC(=O)Nc1cc(C=CC(=O)N2CC3CC34C2=CC(=O)c2[nH]cc(C)c24)n(C)c1 (stereo not shown) [YW-059],IC50,[1]; Table 2,0.00015 ng/mL
same,cytotoxic potency / anticancer activity in vitro,"[1]; human tumor KB cell line, in words","exceeding in the case of YW-059, for example, that of any other reported natural or synthetic agents; also recorded: cytotoxic potency exceeds that of any other agent, natural or synthetic, reported to date"
